# According to US20050070510A1, “Substituted tetracycline compounds as synergistic antifungal agents” (Paratek Pharmaceuticals, Inc., priority 2001, published 2005):
# Test system: COS-1 cells
# Assay: In vitro mammalian cytotoxicity assay (Resazurin)
row,Compound,In Vitro Cytotoxicity
1,CC(C)COC(=O)NCc1ccc(-c2ccc(O)c3c2C[C@@]2(N)C[C@@]4(N)[C@H](N(C)C)C(O)=C(C(N)=O)C(=O)[C@@]4(C#N)C(O)=C2C3=O)cc1 [NS],** (toxicities less than 25 μg/mL are represented by **)
2,CN(C)[C@@H]1C(O)=C(C(=O)CC(C)(C)C)C(=O)[C@@]2(C#N)C(O)=C3C(=O)c4c(O)c(C(C)(C)C)cc(-c5cccc([N+](=O)O)c5)c4C[C@@]3(N)C[C@@]12N [KT],** (toxicities less than 25 μg/mL are represented by **)
3,CN(C)[C@@H]1C(O)=C(C(N)=O)C(=O)[C@@]2(C#N)C(O)=C3C(=O)c4c(O)ccc(-c5cccc(CN6CCOCC6)c5)c4C[C@@]3(N)C[C@@]12N [HS],* (toxicities greater than >25 μg/ml are represented by *)
4,COc1ccc(CN2CCOCC2)cc1-c1ccc(O)c2c1C[C@@]1(N)C[C@@]3(N)[C@H](N(C)C)C(O)=C(C(N)=O)C(=O)[C@@]3(C#N)C(O)=C1C2=O [HU],* (toxicities greater than >25 μg/ml are represented by *)
5,CCOc1ccc(-c2ccc(O)c3c2C[C@@]2(N)C[C@@]4(N)[C@H](N(C)C)C(O)=C(C(N)=O)C(=O)[C@@]4(C#N)C(O)=C2C3=O)cc1CN [OR],* (toxicities greater than >25 μg/ml are represented by *)
6,CC(C)NCc1ccc(-c2ccc(O)c3c2C[C@@]2(N)C[C@@]4(N)[C@H](N(C)C)C(O)=C(C(N)=O)C(=O)[C@@]4(C#N)C(O)=C2C3=O)c2ccccc12 [OE],** (toxicities less than 25 μg/mL are represented by **)
7,CN(C)[C@@H]1C(O)=C(C(N)=O)C(=O)[C@@]2(C#N)C(O)=C3C(=O)c4c(ccc(NC5CCC(Cc6ccccc6)CC5)c4O)[C@H](N)[C@@]3(N)[C@H](O)[C@@]12N (some centres unmarked) [RS],* (toxicities greater than >25 μg/ml are represented by *)
8,CN(C)CC(=O)Nc1ccc(C#Cc2ccc(O)c3c2C[C@@]2(N)C[C@@]4(N)[C@H](N(C)C)C(O)=C(C(N)=O)C(=O)[C@@]4(C#N)C(O)=C2C3=O)cc1 [GY],* (toxicities greater than >25 μg/ml are represented by *)
9,CN(C)[C@@H]1C(O)=C(C(N)=O)C(=O)[C@@]2(C#N)C(O)=C3C(=O)c4c(O)ccc(-c5ccc(I)cc5)c4C[C@@]3(N)C[C@@]12N [CW],** (toxicities less than 25 μg/mL are represented by **)
10,CN(C)c1cc(-c2ccco2)c(O)c2c1C[C@@]1(N)C[C@@]3(N)[C@H](N(C)C)C(O)=C(C(N)=O)C(=O)[C@@]3(C#N)C(O)=C1C2=O [DZ],** (toxicities less than 25 μg/mL are represented by **)
11,COC(=O)c1cc(NC(=O)c2ccno2)cc(-c2ccc(O)c3c2C[C@@]2(N)C[C@@]4(N)C(N(C)C)C(O)=C(C(N)=O)C(=O)[C@@]4(C#N)C(O)=C2C3=O)c1 (some centres unmarked) [RG],* (toxicities greater than >25 μg/ml are represented by *)
12,CN(C)[C@@H]1C(O)=C(C(N)=O)C(=O)[C@@]2(C#N)C(O)=C3C(=O)c4c(O)cccc4[C@H](N)[C@@]3(N)[C@H](OC(=O)CCN3CCCC3)[C@@]12N [BQ],** (toxicities less than 25 μg/mL are represented by **)
13,CN(C)c1cc(NC(=O)Nc2ccccc2)c(O)c2c1C[C@@]1(N)C[C@@]3(N)[C@H](N(C)C)C(O)=C(C(N)=O)C(=O)[C@@]3(C#N)C(O)=C1C2=O [IB],* (toxicities greater than >25 μg/ml are represented by *)
14,CN(C)c1cc(-c2ccc(CN3CCCC3)cc2)c(O)c2c1C[C@@]1(N)C[C@@]3(N)[C@H](N(C)C)C(O)=C(C(N)=O)C(=O)[C@@]3(C#N)C(O)=C1C2=O [JZ],** (toxicities less than 25 μg/mL are represented by **)
15,CN(C)[C@@H]1C(O)=C(C(N)=O)C(=O)[C@@]2(C#N)C(O)=C3C(=O)c4c(ccc(CNCC(C)(C)C)c4O)[C@H](N)[C@@]3(N)[C@H](O)[C@@]12N [RP],* (toxicities greater than >25 μg/ml are represented by *)
16,CN(C)c1cc(NCc2ccc([N+](=O)O)o2)c(O)c2c1C[C@@]1(N)C[C@@]3(N)[C@H](N(C)C)C(O)=C(C(N)=O)C(=O)[C@@]3(C#N)C(O)=C1C2=O [UH],** (toxicities less than 25 μg/mL are represented by **)
17,CN(C)[C@@H]1C(O)=C(C(N)=O)C(=O)[C@@]2(C#N)C(O)=C3C(=O)c4c(O)ccc(NS(C)(=O)=O)c4C[C@@]3(N)C[C@@]12N [RZ],* (toxicities greater than >25 μg/ml are represented by *)
18,CN(C)[C@@H]1C(O)=C(C(N)=O)C(=O)[C@@]2(C#N)C(O)=C3C(=O)c4c(ccc(C(C)(C)CCC[N+](=O)[O-])c4O)[C@H](N)[C@@]3(N)[C@H](O)[C@@]12N [BF],** (toxicities less than 25 μg/mL are represented by **)
19,CCC(=O)c1ccc(O)c2c1C[C@@]1(N)C[C@@]3(N)[C@H](N(C)C)C(O)=C(C(N)=O)C(=O)[C@@]3(C#N)C(O)=C1C2=O [LI],** (toxicities less than 25 μg/mL are represented by **)
20,CN(C)[C@@H]1C(O)=C(C(N)=O)C(=O)[C@@]2(C#N)C(O)=C3C(=O)c4c(O)ccc(-c5cccc(CNCc6ccccc6)c5)c4C[C@@]3(N)C[C@@]12N [HN],** (toxicities less than 25 μg/mL are represented by **)
21,CN(C)[C@@H]1C(O)=C(C(N)=O)C(=O)[C@@]2(C#N)C(O)=C3C(=O)c4c(O)c(C(C)(C)C)cc(C(=O)Cl)c4C[C@@]3(N)C[C@@]12N [QA],** (toxicities less than 25 μg/mL are represented by **)

row,Compound,In Vitro Cytotoxicity
1,CC(C)COC(=O)Nc1ccc(-c2ccc(O)c3c2C[C@@]2(N)C[C@@]4(N)[C@H](N(C)C)C(O)=C(C(N)=O)C(=O)[C@@]4(C#N)C(O)=C2C3=O)cc1 [OD],** (toxicities less than 25 μg/mL are represented by **)
2,CCOC(=O)C(Cc1ccccc1)NCc1ccc(OC)c(-c2ccc(O)c3c2C[C@@]2(N)C[C@@]4(N)[C@H](N(C)C)C(O)=C(C(N)=O)C(=O)[C@@]4(C#N)C(O)=C2C3=O)c1 (some centres unmarked) [OB],** (toxicities less than 25 μg/mL are represented by **)
3,CC(C)CNCc1cc(N(C)C)c2c(c1O)C(=O)C1=C(O)[C@]3(C#N)C(=O)C(C(N)=O)=C(O)[C@@H](N(C)C)[C@]3(N)C[C@]1(N)C2 [ML],* (toxicities greater than >25 μg/ml are represented by *)
4,CN(C)c1cc(NCc2ccc([N+](=O)O)cc2)c(O)c2c1C[C@@]1(N)C[C@@]3(N)[C@H](N(C)C)C(O)=C(C(N)=O)C(=O)[C@@]3(C#N)C(O)=C1C2=O [VH],** (toxicities less than 25 μg/mL are represented by **)
5,CN(C)c1cc(-c2ccc(OC(F)(F)F)cc2)c(O)c2c1C[C@@]1(N)C[C@@]3(N)[C@H](N(C)C)C(O)=C(C(N)=O)C(=O)[C@@]3(C#N)C(O)=C1C2=O [MA],** (toxicities less than 25 μg/mL are represented by **)
6,CN(C)c1cc(NC(=O)OC(C)(C)C)c(O)c2c1C[C@@]1(N)C[C@@]3(N)[C@H](N(C)C)C(O)=C(C(N)=O)C(=O)[C@@]3(C#N)C(O)=C1C2=O [DN],** (toxicities less than 25 μg/mL are represented by **)
7,COc1ccc(CNCc2cccc(F)c2)cc1-c1ccc(O)c2c1C[C@@]1(N)C[C@@]3(N)[C@H](N(C)C)C(O)=C(C(N)=O)C(=O)[C@@]3(C#N)C(O)=C1C2=O [NG],** (toxicities less than 25 μg/mL are represented by **)
8,CC(C)CC(Cc1ccc(O)c2c1C[C@@]1(N)C[C@@]3(N)[C@H](N(C)C)C(O)=C(C(N)=O)C(=O)[C@@]3(C#N)C(O)=C1C2=O)CC(C)C [RN],** (toxicities less than 25 μg/mL are represented by **)
9,CN(C)[C@@H]1C(O)=C(C(N)=O)C(=O)[C@@]2(C#N)C(O)=C3C(=O)c4c(O)cccc4/C(=C\c4cccc(C(N)=O)c4)[C@@]3(N)[C@H](O)[C@@]12N [CK],* (toxicities greater than >25 μg/ml are represented by *)
10,CN(C)c1cc(NC(=O)Nc2cccc3ccccc23)c(O)c2c1C[C@@]1(N)C[C@@]3(N)[C@H](N(C)C)C(O)=C(C(N)=O)C(=O)[C@@]3(C#N)C(O)=C1C2=O [IA],* (toxicities greater than >25 μg/ml are represented by *)
11,CCc1cc(C#Cc2ccc(OC)cc2)c(O)c2c1C[C@@]1(N)C[C@@]3(N)[C@H](N(C)C)C(O)=C(C(N)=O)C(=O)[C@@]3(C#N)C(O)=C1C2=O [LH],** (toxicities less than 25 μg/mL are represented by **)
12,COc1ccc(-c2ccc3c(c2O)C(=O)C2=C(O)[C@]4(C#N)C(=O)C(C(N)=O)=C(O)[C@@H](N(C)C)[C@]4(N)[C@@H](O)[C@]2(N)[C@H]3N)cc1CN1CCCC1 [PQ],* (toxicities greater than >25 μg/ml are represented by *)
13,CC(=O)c1ccc(-c2ccc3c(c2O)C(=O)C2=C(O)[C@]4(C#N)C(=O)C(C(N)=O)=C(O)[C@@H](N(C)C)[C@]4(N)[C@@H](O)[C@]2(N)[C@H]3N)cc1 [QP],** (toxicities less than 25 μg/mL are represented by **)
14,CCc1cc(CNC(=O)c2cccnc2)c(O)c2c1C[C@@]1(N)C[C@@]3(N)[C@H](N(C)C)C(O)=C(C(N)=O)C(=O)[C@@]3(C#N)C(O)=C1C2=O [IY],* (toxicities greater than >25 μg/ml are represented by *)
15,CCOC(=O)C(NCc1ccc(OC)c(-c2ccc(O)c3c2C[C@@]2(N)C[C@@]4(N)[C@H](N(C)C)C(O)=C(C(N)=O)C(=O)[C@@]4(C#N)C(O)=C2C3=O)c1)C(C)C (some centres unmarked) [NZ],** (toxicities less than 25 μg/mL are represented by **)
16,CN(C)[C@@H]1C(O)=C(C(N)=O)C(=O)[C@@]2(C#N)C(O)=C3C(=O)c4c(ccc(/C=C/C(=O)O)c4O)[C@H](O)[C@@]3(N)[C@H](O)[C@@]12N [AV],** (toxicities less than 25 μg/mL are represented by **)
17,CC(C)CNCc1ccc2c(c1O)C(=O)C1=C(O)[C@]3(C#N)C(=O)C(C(N)=O)=C(O)[C@@H](N(C)C)[C@]3(N)[C@@H](O)[C@]1(N)[C@H]2N [RQ],* (toxicities greater than >25 μg/ml are represented by *)
18,CN(C)CC(=O)O[C@H]1[C@@]2(N)C(=C(O)[C@]3(C#N)C(=O)C(C(N)=O)=C(O)[C@@H](N(C)C)[C@]13N)C(=O)c1c(O)cccc1[C@@H]2N [BZ],** (toxicities less than 25 μg/mL are represented by **)
19,CN(C)c1cc(C#CCNS(C)(=O)=O)c(O)c2c1C[C@@]1(N)C[C@@]3(N)[C@H](N(C)C)C(O)=C(C(N)=O)C(=O)[C@@]3(C#N)C(O)=C1C2=O [IP],* (toxicities greater than >25 μg/ml are represented by *)
20,CN(C)[C@@H]1C(O)=C(C(N)=O)C(=O)[C@@]2(C#N)C(O)=C3C(=O)c4c(O)ccc(C#CCNS(C)(=O)=O)c4C[C@@]3(N)C[C@@]12N [IQ],* (toxicities greater than >25 μg/ml are represented by *)
